Values of other authors, collected in PubChem BioAssay AID1259409 (Chemical Carcinogenesis Research Information System (CCRIS), 2018).

System: rodent chemically induced tumor inhibition, incidence and multiplicity
Assay: CCRIS tumor inhibitor studies
Settings: Route [Inhibitor]: ORAL, Promoter: NONE USED

## CCNC(=O)/C=C(C)/C=C/C=C(C)/C=C/C1=C(C)CCCC1(C)C
Carcinogen: N-METHYL-N-NITROSOUREA, 684-93-5, Dose [Inhibitor]: 2 MMOL/KG DIET DAILY STARTING 12 D AFTER CARCINOGEN TREATMENT THROUGH ABOUT 8 MO AFTER CARCINOGEN DOSE (STUDY DURATION:, Species: RAT, Strain/Sex: F344/MALE, Target Tissue: Type of Lesion: COLON: ADENOMA, Dose [Carcinogen]: 2.5 MG 1/WK FOR 2 WK
  tumour outcome (control, treated, inhibition, significance): 16/39 (41%), 10/30 (33%), 20%, not significant
Carcinogen: N-METHYL-N-NITROSOUREA, 684-93-5, Dose [Inhibitor]: 327 MG/KG DIET DAILY STARTING 1 WK AFTER LAST CARCINOGEN TREATMENT AND CONTINUING FOR 6 MO (STUDY DURATION: 9 MO), Species: HAMSTER, Strain/Sex: SYRIAN/MALE, Target Tissue: Type of Lesion: TRACHEA: BENIGN EPITHELIAL NEOPLASM, Dose [Carcinogen]: 0.5% IN 1 ML PHOSPHATE-BUFFERED SALINE 1/WK FOR 12 WK
  tumour outcome (control, treated, inhibition, significance): 6/63 (10%), 12/63 (19%), -90%, not significant
Carcinogen: N-METHYL-N-NITROSOUREA, 684-93-5, Dose [Inhibitor]: 327 MG/KG DIET DAILY STARTING 1 WK AFTER LAST CARCINOGEN TREATMENT AND CONTINUING FOR 6 MO (STUDY DURATION: 9 MO), Species: HAMSTER, Strain/Sex: SYRIAN/MALE, Target Tissue: Type of Lesion: TRACHEA: CARCINOMA, Dose [Carcinogen]: 0.5% IN 1 ML PHOSPHATE-BUFFERED SALINE 1/WK FOR 12 WK
  tumour outcome (control, treated, inhibition, significance): 4/63 (6%), 12/63 (19%), -217%, p<0.05
Carcinogen: N-METHYL-N-NITROSOUREA, 684-93-5, Dose [Inhibitor]: 327 MG/KG DIET DAILY STARTING 1 WK AFTER LAST CARCINOGEN TREATMENT AND CONTINUING FOR 6 MO (STUDY DURATION: 9 MO), Species: HAMSTER, Strain/Sex: SYRIAN/MALE, Target Tissue: Type of Lesion: TRACHEA: EPITHELIAL NEOPLASM, Dose [Carcinogen]: 0.5% IN 1 ML PHOSPHATE-BUFFERED SALINE 1/WK FOR 12 WK
  tumour outcome (control, treated, inhibition, significance): 10/63 (16%), 24/63 (38%), -138%, p<0.01
Carcinogen: N-METHYL-N-NITROSOUREA, 684-93-5, Dose [Inhibitor]: 327 MG/KG IN DIET DAILY FOR 6 MO STARTING 1 WK AFTER FINAL CARCINOGEN DOSE (STUDY DURATION: 9 MO), Species: HAMSTER, Strain/Sex: SYRIAN/MALE, Target Tissue: Type of Lesion: TRACHEA: BENIGN EPITHELIAL NEOPLASM, Dose [Carcinogen]: 0.5% SOLUTION FOR 5 SECOND EXPOSURE 1/WK FOR 12 WK
  tumour outcome (control, treated, inhibition, significance): 6/63 (10%), 12/63 (19%), -90%, not significant
Carcinogen: N-METHYL-N-NITROSOUREA, 684-93-5, Dose [Inhibitor]: 327 MG/KG IN DIET DAILY FOR 6 MO STARTING 1 WK AFTER FINAL CARCINOGEN DOSE (STUDY DURATION: 9 MO), Species: HAMSTER, Strain/Sex: SYRIAN/MALE, Target Tissue: Type of Lesion: TRACHEA: CARCINOMA, Dose [Carcinogen]: 0.5% SOLUTION FOR 5 SECOND EXPOSURE 1/WK FOR 12 WK
  tumour outcome (control, treated, inhibition, significance): 4/63 (6%), 12/63 (19%), -216%, p<0.05
Carcinogen: N-METHYL-N-NITROSOUREA, 684-93-5, Dose [Inhibitor]: 327 MG/KG IN DIET DAILY FOR 6 MO STARTING 1 WK AFTER FINAL CARCINOGEN DOSE (STUDY DURATION: 9 MO), Species: HAMSTER, Strain/Sex: SYRIAN/MALE, Target Tissue: Type of Lesion: TRACHEA: EPITHELIAL NEOPLASM, Dose [Carcinogen]: 0.5% SOLUTION FOR 5 SECOND EXPOSURE 1/WK FOR 12 WK
  tumour outcome (control, treated, inhibition, significance): 10/63 (16%), 24/63 (38%), -138%, p<0.01
Carcinogen: N-METHYL-N-NITROSOUREA, 684-93-5, Dose [Inhibitor]: 654 MG/KG DIET DAILY FOR 24 WK STARTING 5 D AFTER LAST DOSE OF CARCINOGEN (STUDY DURATION: 32 WK), Species: RAT, Strain/Sex: F344/MALE, Target Tissue: Type of Lesion: COLON: SARCOMA, Dose [Carcinogen]: 0.5 MG 2/WK FOR 8 WK
  tumour outcome (control, treated, inhibition, significance): 5/40 (13%), 1/40 (3%), 77%, not calculated
Carcinogen: N-METHYL-N-NITROSOUREA, 684-93-5, Dose [Inhibitor]: 654 MG/KG DIET DAILY FOR 24 WK STARTING 5 D AFTER LAST DOSE OF CARCINOGEN (STUDY DURATION: 32 WK), Species: RAT, Strain/Sex: F344/MALE, Target Tissue: Type of Lesion: COLON: TUMOR, Dose [Carcinogen]: 0.5 MG 2/WK FOR 8 WK
  tumour outcome (control, treated, inhibition, significance): 60%, 65%, -8%, not significant
Carcinogen: N-METHYL-N-NITROSOUREA, 684-93-5, Dose [Inhibitor]: 654 MG/KG DIET DAILY FOR 38 WK STARTING 5 D AFTER LAST DOSE OF CARCINOGEN (STUDY DURATION: 44 WK), Species: RAT, Strain/Sex: F344/MALE, Target Tissue: Type of Lesion: COLON: TUMOR, Dose [Carcinogen]: 0.5 MG 2/WK FOR 6 WK
  tumour outcome (control, treated, inhibition, significance): 62%, 62%, 0%, not significant
Carcinogen: N-METHYL-N-NITROSOUREA, 684-93-5, Dose [Inhibitor]: 654 MG/KG DIET DAILY FOR 48 WK STARTING 5 D AFTER LAST DOSE OF CARCINOGEN (STUDY DURATION: 52 WK), Species: RAT, Strain/Sex: F344/MALE, Target Tissue: Type of Lesion: COLON: TUMOR, Dose [Carcinogen]: 0.5 MG 2/WK FOR 4 WK
  tumour outcome (control, treated, inhibition, significance): 31%, 30%, 3%, not significant
Carcinogen: N-NITROBIS(2-OXOPROPYL)AMINE, 60559-38-4, Dose [Inhibitor]: 0.5 OR 1.0 MMOL/KG DIET DAILY STARTING 1 WK AFTER CARCINOGEN TREATMENT AND CONTINUING THROUGH THE END OF THE STUDY (STUD, Species: HAMSTER, Strain/Sex: SYRIAN/FEMALE, Target Tissue: Type of Lesion: LIVER: BENIGN TUMOR, Dose [Carcinogen]: 40 MG/KG BW ONCE
  tumour outcome (control, treated, inhibition, significance): 4/20 (20%), 17/37 (46%), -130%, not significant
Carcinogen: N-NITROBIS(2-OXOPROPYL)AMINE, 60559-38-4, Dose [Inhibitor]: 0.5 OR 1.0 MMOL/KG DIET DAILY STARTING 1 WK AFTER CARCINOGEN TREATMENT AND CONTINUING THROUGH THE END OF THE STUDY (STUD, Species: HAMSTER, Strain/Sex: SYRIAN/FEMALE, Target Tissue: Type of Lesion: ND: TOTAL TUMOR, Dose [Carcinogen]: 40 MG/KG BW ONCE
  tumour outcome (control, treated, inhibition, significance): 17/20 (85%), 32/37 (86%), 1%, not significant
Carcinogen: N-NITROBIS(2-OXOPROPYL)AMINE, 60559-38-4, Dose [Inhibitor]: 0.5 OR 1.0 MMOL/KG DIET DAILY STARTING 1 WK AFTER CARCINOGEN TREATMENT AND CONTINUING THROUGH THE END OF THE STUDY (STUD, Species: HAMSTER, Strain/Sex: SYRIAN/FEMALE, Target Tissue: Type of Lesion: PANCREAS: DUCTULAR ADENOMA, Dose [Carcinogen]: 10 MG/KG BW ONCE
  tumour outcome (control, treated, inhibition, significance): 5/23 (23%), 13/25 (52%), -126%, not significant
Carcinogen: N-NITROBIS(2-OXOPROPYL)AMINE, 60559-38-4, Dose [Inhibitor]: 0.5 OR 1.0 MMOL/KG DIET DAILY STARTING 1 WK AFTER CARCINOGEN TREATMENT AND CONTINUING THROUGH THE END OF THE STUDY (STUD, Species: HAMSTER, Strain/Sex: SYRIAN/FEMALE, Target Tissue: Type of Lesion: PANCREAS: DUCTULAR ADENOMA, Dose [Carcinogen]: 40 MG/KG BW ONCE
  tumour outcome (control, treated, inhibition, significance): 12/20 (60%), 27/37 (73%), -22%, not significant
Carcinogen: N-NITROBIS(2-OXOPROPYL)AMINE, 60559-38-4, Dose [Inhibitor]: 0.5 OR 1.0 MMOL/KG DIET DAILY STARTING 1 WK AFTER CARCINOGEN TREATMENT AND CONTINUING THROUGH THE END OF THE STUDY (STUD, Species: HAMSTER, Strain/Sex: SYRIAN/FEMALE, Target Tissue: Type of Lesion: PANCREAS: DUCTULAR CARCINOMA, Dose [Carcinogen]: 10 MG/KG BW ONCE
  tumour outcome (control, treated, inhibition, significance): 6/23 (27%), 6/25 (24%), 11%, not significant
Carcinogen: N-NITROBIS(2-OXOPROPYL)AMINE, 60559-38-4, Dose [Inhibitor]: 0.5 OR 1.0 MMOL/KG DIET DAILY STARTING 1 WK AFTER CARCINOGEN TREATMENT AND CONTINUING THROUGH THE END OF THE STUDY (STUD, Species: HAMSTER, Strain/Sex: SYRIAN/MALE, Target Tissue: Type of Lesion: LIVER: BENIGN TUMOR, Dose [Carcinogen]: 40 MG/KG BW ONCE
  tumour outcome (control, treated, inhibition, significance): 5/24 (21%), 25/41 (62%), -195%, p<0.05
Carcinogen: N-NITROBIS(2-OXOPROPYL)AMINE, 60559-38-4, Dose [Inhibitor]: 0.5 OR 1.0 MMOL/KG DIET DAILY STARTING 1 WK AFTER CARCINOGEN TREATMENT AND CONTINUING THROUGH THE END OF THE STUDY (STUD, Species: HAMSTER, Strain/Sex: SYRIAN/MALE, Target Tissue: Type of Lesion: ND: TOTAL TUMOR, Dose [Carcinogen]: 10 MG/KG BW ONCE
  tumour outcome (control, treated, inhibition, significance): 12/22 (54%), 24/31 (77%), -43%, not significant
